The values that follow come from patent publication US12433854B2, “Methods and compositions for preventing or treating calciphylaxis” (Epizon Pharma, Inc., priority 2018, dated 2025).

Where two headings read alike, the source gives them in different places.

Test [1] concerns subjects with ESRD receiving hemodialysis. As to the kind of experiment: MK-7 in subjects with stable ESRD receiving hemodialysis: biomarker changes day 1 to day 15. The format is in vivo, human. As to conditions: 10 mg capsule of MK-7 per day orally for 14 days; change between day 1 and day 15. The method, then: This example describes the administration of MK-7 to subjects with ESRD receiving hemodialysis, and who are at risk of developing calciphylaxis. Administration of MK-7 can result in a change in certain biomarker levels indicative of the prevention of the development of calciphylaxis, or in the arrest or slowing down of the development of calciphylaxis. A number of subjects with stable ESRD but without calciphylaxis are enrolled in the study, whereupon the subjects orally receive a 10 mg capsule of MK-7 per day for 14 days. The levels of certain biomarkers, including uncarboxylated Matrix Gla Protein (MGP), uncarboxylated osteocalcin, osteoprotegerin, Fetuin A and hs-CRP were assessed on day 1 and on day 15 (the end of treatment), and the changes between day 1 and day 15 were calculated.

The test system of test [2] is subjects at risk of development of calciphylaxis. As to the kind of experiment: MK-7 and/or MKH2-7 in subjects at risk for development of calciphylaxis (Example 1). The test is classed as in vivo, human. The settings on record: 10 mg, 25 mg or 50 mg orally once daily; blood samples; contemplated. An excerpt:
This example describes the administration of MK-7 and/or MKH2-7 to subjects at risk for development of calciphylaxis, but who have not yet developed the characteristic skin lesions of calciphylaxis. Risk factors to be considered include, but are not limited to, diabetes mellitus, obesity, ESRD and/or hemodialysis, and prior treatment with warfarin (Nigwekar et al. (2016), supra). It is contemplated that administration of MK-7 and/or MKH2-7 can result in protection of the subjects from skin lesions and a change in certain biomarker levels indicative of the prevention of the development of calciphylaxis.
Subjects at risk of development of calciphylaxis orally receive MK-7 and/or MKH2-7 at 10 mg, 25 mg or 50 mg once daily for at least 2 weeks, 4 weeks, 6 weeks, 8 weeks, 3 months, 6 months, 1 year, or indefinitely. The dosage form is a 10 mg or 25 mg soft-gel capsule. Two 25 mg capsules are be administered once daily to the 50 mg dosage cohort.
It should be noted that not all subjects with elevated risk factors for calciphylaxis will develop the characteristic skin lesions of calciphylaxis. The intent of treating with MK-7 and/or MKH2-7 proactively (prior to a clinical diagnosis of calciphylaxis) is the prevention of lesion appearance. Thus, a drop in frequency of, or elimination of lesion appearances is contemplated to be a successful treatment.
Several biomarkers can be assessed to determine the efficacy of MK-7 and/or MKH2-7 at the three dose levels. Exemplary biomarkers include PIVKA-II; uncarboxylated and total Matrix Gla Protein (MGP); uncarboxylated, carboxylated and total osteocalcin protein; uncarboxylated, carboxylated and total Protein C, osteoprotegerin, Fetuin A and hs-CRP.
Blood samples are obtained to measure the biomarkers according to the following schedule. Blood sampling can occur during treatment on a weekly or monthly basis. It is contemplated that administration of MK-7 and/or MKH2-7 will result in (i) an increase in PIVKA-II, osteoprotegerin, or Fetuin A, which is indicative of slowing the progression of, arresting, or reversing, calciphylaxis, (ii) a decrease in uncarboxylated MGP, uncarboxylated osteocalcin, and/or uncarboxylated Protein C, which is indicative of slowing the progression of, arresting, or reversing calciphylaxis.
Further, pulse wave velocity (PWV) can be measured to assess arterial compliance. Improved vascular compliance will be indicative of slowing the progression of, arresting, or reversing calciphylaxis.

In test [3] the test system is subjects diagnosed with calciphylaxis. As to the kind of experiment: MK-7 and/or MKH2-7 in subjects diagnosed with calciphylaxis (Example 2). The test is classed as in vivo, human. The settings on record: 10 mg, 25 mg or 50 mg orally once daily; contemplated. An excerpt: This example describes the administration of MK-7 and/or MKH2-7 to subjects diagnosed with calciphylaxis. Typical symptoms include presentation of characteristic painful skin lesions (Nigwekar et al. (2015) “Calciphylaxis: Risk Factors, Diagnosis, and Treatment.” Am. J. Kidney Dis. 66:133-46). Definitive diagnosis of calciphylaxis is achieved via skin biopsy (Nigwekar, 2015 supra). Further conditions need to be considered for correct diagnosis (Id.).
Subjects diagnosed with calciphylaxis orally receive MK-7 and/or MKH2-7 at 10 mg, 25 mg or 50 mg once daily for at least 2 weeks, 4 weeks, 6 weeks, 8 weeks, 3 months, 6 months, 1 year, or indefinitely. The dosage form is a 10 mg or 25 mg soft-gel capsule. Two 25 mg capsules are administered once daily to the 50 mg dosage cohort.
The arrest of, or decreases in lesion size and frequency is contemplated to be an indication of successful treatment.
Additionally, because calciphylaxis has a considerable mortality risk, increased overall survival time of diagnosed subjects will be an indication of treatment success. It is contemplated that administration of MK-7 and/or MKH2-7 according to the foregoing will result in an increased overall survival time of diagnosed subjects.

Test [4] relates to adult hemodialysis patients. As to conditions: cited from earlier work.
In the next test the test system is osteocalcin. As to conditions: 100-200 μg/d for 4 to 12 weeks; significantly and in a dose-dependent manner; cited from earlier work.
Where [5] appears, read: vitamin K2 supplementation, hemodialysis patients.

With `CC(C)=CCC/C(C)=C/CC/C(C)=C/CC/C(C)=C/CC/C(C)=C/CC/C(C)=C/CC/C(C)=C/CC1=C(C)C(=O)c2ccccc2C1=O` [MK-7, 2-[(2E,6E,10E,14E,18E,22E)-3,7,11,15,19,23,27-heptamethyloctacosa-2,6,10,14,18,22,26-heptaenyl]-3-methylnaphthalene-1,4-dione], in test [1], the “average increase in Fetuin A” value worked out at 23.1%, the “average increase in osteoprotegerin” value was 14.5%, the “average reduction in hs-CRP” value is −35.8% and the “average reduction in uncarboxylated MGP” value is reported as −21.9%. Further, the “average reduction in uncarboxylated osteocalcin” value in test [1] was −55.5%. In test [2], the “Fetuin A” value is recorded as “increase”, the PIVKA-II entry is reported as “increase”, the osteoprotegerin entry was “increase” and the “uncarboxylated MGP” value is listed as “decrease”. In test [2], the “uncarboxylated Protein C” value is “decrease” and the uncarboxylated osteocalcin entry is listed as “decrease”. Also, the “overall survival time of diagnosed subjects” value in test [3] is listed as “increased”. Besides, the “response rate in the reduction in dp-ucMGP levels” value in test [4] (group receiving 135 μg of menaquinone-7) is given as 77%. Further, the “response rate in the reduction in dp-ucMGP levels” value in test [4] (group receiving 360 μg of menaquinone-7) is recorded as 93%. Moreover, the “ratio of carboxylated to undercarboxylated osteocalcin” value in the test with osteocalcin is given as “increase”.

On to `CC(C)=CCC/C(C)=C/CC/C(C)=C/CC/C(C)=C/CC/C(C)=C/CC/C(C)=C/CC/C(C)=C/Cc1c(C)c(O)c2ccccc2c1O` [MKH2-7, 2-[(2E,6E,10E,14E,18E,22E)-3,7,11,15,19,23,27-heptamethyloctacosa-2,6,10,14,18,22,26-heptaenyl]-3-methylnaphthalene-1,4-diol], for which, in test [2], the “Fetuin A” value was “increase”, the PIVKA-II result is on record as “increase”, the osteoprotegerin result is “increase” and the “uncarboxylated MGP” value was “decrease”. Further, in test [2], the “uncarboxylated Protein C” value was “decrease” and the uncarboxylated osteocalcin entry is on record as “decrease”. The “overall survival time of diagnosed subjects” value in test [3] is “increased”.

For the compound Vitamin K2, in test [4] (setting [5]), the “circulating PIVKA-II levels” value is “dose- and time-dependent decrease”; the “circulating dp-ucMGP levels” value is “dose- and time-dependent decrease”; the “circulating uncarboxylated osteocalcin levels” value was “dose- and time-dependent decrease”.
